Test results published in patent US7915270B2, “Oxazole ketones as modulators of fatty acid amide hydrolase” (The Scripps Research Institute, priority 2006, dated 2011).
pIC50: −log10 of the molar value.

Molecular target: T1, FAAH (Homo sapiens, UniProt O00519)
T1 sequence (O00519 1-579): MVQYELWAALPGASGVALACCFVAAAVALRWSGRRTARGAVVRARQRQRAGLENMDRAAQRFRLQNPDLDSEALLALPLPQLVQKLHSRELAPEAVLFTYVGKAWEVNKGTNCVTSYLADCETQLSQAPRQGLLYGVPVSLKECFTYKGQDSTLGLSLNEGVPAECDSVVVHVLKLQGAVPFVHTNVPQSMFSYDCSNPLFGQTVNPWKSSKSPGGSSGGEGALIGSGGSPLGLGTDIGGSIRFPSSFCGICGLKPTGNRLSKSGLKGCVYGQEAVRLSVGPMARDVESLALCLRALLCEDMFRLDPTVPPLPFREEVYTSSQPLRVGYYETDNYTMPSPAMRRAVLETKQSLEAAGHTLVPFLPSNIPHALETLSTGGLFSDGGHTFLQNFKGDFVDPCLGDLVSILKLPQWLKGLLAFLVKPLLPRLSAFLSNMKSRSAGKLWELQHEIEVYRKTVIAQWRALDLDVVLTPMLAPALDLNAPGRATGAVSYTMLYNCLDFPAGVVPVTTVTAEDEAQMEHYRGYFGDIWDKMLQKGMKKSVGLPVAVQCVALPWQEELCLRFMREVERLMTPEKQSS
Assay: Assay Method 1B: FAAH assay, 3H-anandamide hydrolysis in cell homogenate (T84 or SK-N-MC cells transfected with human FAAH)
Type: biochemical
Parameters: expressed in transfected cells
Conditions: 3H-AEA 80 nM, rt 1 h, pH 9

SMILES | pIC50
O=C(O)c1ccc(-c2cnc(C(=O)CCCCCCc3ccccc3)o2)nc1 [Example 38, 6-(2-(7-Phenylheptanoyl)oxazol-5-yl)nicotinic acid] | 9.70
O=C(O)c1cccc(-c2cnc(C(=O)CCCCCCc3ccccc3)o2)n1 [Example 37, 6-(2-(7-Phenylheptanoyl)oxazol-5-yl)picolinic acid] | 9.40
